# Reference: EP0169787B1, “Use of oligonucleotides bonded to an intercalating agent as drugs” (priority 1984, dated 1986)
# Like-named read-outs stand apart in the source and are kept apart here.
# How the values were obtained:
# cellules CV1 = format: cell-based, singe
# Procedure: La dilution de virus dans un tampon phosphate isotonique a été choisie de façon […] cultures témoins environ 75% de destruction cellulaire (75% d'effet cytopathogène) après 3 jours d'incubation. Après 1 heure de contact à 37°C, l'inocu- lum […] du même milieu contenant ou non les produits à étudier sont ajoutés. […] Des cultures de cellules non infectées par le virus et traitées avec les produits ont été aussi examinées pour […] cytotoxiques éventuels. Les pourcentages de destruction cellulaire dans les cultures infectées (effet cytopathogène) et dans les cultures non infectées (effet cytotoxique des produits) sont indiqués dans le tableau V.
# A/Victoria (H3N2) = format: cell-based; conditions: cellules MDCK; for Pourcentage de destruction cellulaire Cultures infectées (effet cytopathogène) par A/Victoria (H3N2): 3 jours
# virus SV40 = assay: Inhibition of SV40 multiplication (cytopathogenic effect) in CV1 cell cultures; format: cell-based; conditions: 3 jours, témoins 75
Compound,effet cytotoxique / toxicité vis-à-vis des cellules saines (cellules CV1),"Pourcentage de destruction cellulaire Cultures infectées (effet cytopathogène) par A/Victoria (H3N2) (A/Victoria (H3N2); 0,5 µg/ml)","Pourcentage de destruction cellulaire Cultures infectées (effet cytopathogène) par A/Victoria (H3N2) (A/Victoria (H3N2); 0,25 µg/ml)","Pourcentage de destruction cellulaire Cultures infectées (effet cytopathogène) par A/Victoria (H3N2) (A/Victoria (H3N2); 1,0 µg/ml)",effet inhibiteur de la multiplication du virus grippal A/Victoria (H3N2) (A/Victoria (H3N2); result in words),"Pourcentage de destruction cellulaire Cultures infectées par SV40 (effet cytopathogène) (virus SV40; 0,5 µg/ml)","Pourcentage de destruction cellulaire Cultures infectées par SV40 (effet cytopathogène) (virus SV40; 0,5 µg/ml, listed as Acr(CH2)50H)","Pourcentage de destruction cellulaire Cultures infectées par SV40 (effet cytopathogène) (virus SV40; 0,25 µg/ml)","Pourcentage de destruction cellulaire Cultures infectées par SV40 (effet cytopathogène) (virus SV40; 0,25 µg/ml, listed as Acr(CH2)50H)","Pourcentage de destruction cellulaire Cultures infectées par SV40 (effet cytopathogène) (virus SV40; 1,0 µg/ml)","Pourcentage de destruction cellulaire Cultures infectées par SV40 (effet cytopathogène) (virus SV40; 2,0 µg/ml)"
"COc1ccc2nc3cc(Cl)ccc3c(NCCCCCCO)c2c1 [HO(CH2)6 Z"", méthoxy-2-chloro-6(ω-hydroxyhexylamino)-9 acridine]",trop important,,,,,,,,,,
"COc1ccc2nc3cc(Cl)ccc3c(NCCCCCO)c2c1 [Acr(CH2)5OH, méthoxy-2 chloro-6 (ω-hydroxypentyl-amino)-9 acridine]",,100%,100%,100%,dépourvu d'activité,50%,n'exerce pas d'effet inhibiteur significatif,75%,n'exerce pas d'effet inhibiteur significatif,75%,100%
